Tests used:
human renal renin = biological target: T1, human renal renin (Homo sapiens, UniProt P00797); experiment: Inhibition of human renal renin in vitro (angiotensin I formation by radioimmunoassay); format: biochemical; conditions: human renal renin, 37 degrees C, pH 6.0; read-out: IC50
T1 construct: from tissue; host or cells: human kidney (read from the word 'renal'; no preparation is printed)
T1 sequence (P00797 67-406): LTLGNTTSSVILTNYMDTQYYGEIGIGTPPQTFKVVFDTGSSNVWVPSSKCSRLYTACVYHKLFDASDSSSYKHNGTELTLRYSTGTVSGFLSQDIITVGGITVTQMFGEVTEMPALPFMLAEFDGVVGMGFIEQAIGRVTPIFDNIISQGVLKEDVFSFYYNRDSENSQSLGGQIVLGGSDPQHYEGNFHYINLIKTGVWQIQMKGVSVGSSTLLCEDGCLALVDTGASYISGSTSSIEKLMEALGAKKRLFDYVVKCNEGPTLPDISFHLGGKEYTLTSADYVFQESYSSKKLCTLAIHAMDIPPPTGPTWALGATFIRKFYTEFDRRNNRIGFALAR

[1] = Blood pressure in salt-depleted monkeys after oral dosing; format: in vivo, cynomolgous monkeys; conditions: 3 mg/kg oral
Source text: (§1) The ability of the compounds of the invention to decrease blood pressure and plasma renin activity in vivo can be determined using the following method.
(§2) Male cynomolgous monkeys housed under constant temperature and lighting conditions and weighing 3-5 kg were instrumented with chronic indwelling arterial and venous catheters.

plasma renin = experiment: Plasma renin activity (PRA) in salt-depleted monkeys after oral dosing; format: in vivo, cynomolgous monkeys; conditions: 3 mg/kg oral
Source text: as §1, §2

[2] = Mean of two monkeys, time 0 min

SMILES: CCCC[C@H](O[C@@H](Cc1ccccc1)C(=O)N1CCC(OCOC)CC1)C(=O)N[C@@H](CC1CCCCC1)[C@@H](O)C[C@H](C(=O)NCCCN1CCOCC1)C(C)C [Example 118, 2(S)-(1(S)-(4-(Methoxymethoxy)piperidin-1-yl)carbonyl-2-phenyl)ethoxyhexanoic acid amide of 3-(4-morpholinyl)propyl 5(S)-amino-6-cyclohexyl-4(S)-hydroxy-2(S)-isopropylhexanamide]
- IC50 (human renal renin): 0.84 nM
- Blood pressure (BP) ([1]; Mean of two monkeys, 5 min): 117 mmHg
- Blood pressure (BP) ([1]; Mean of two monkeys, 15 min): 111 mmHg
- Blood pressure (BP) ([1]; Mean of two monkeys, 30 min): 112 mmHg
- Blood pressure (BP) ([1]; Mean of two monkeys, 45 min): 104 mmHg
- Blood pressure (BP) ([1]; Mean of two monkeys, 60 min): 109 mmHg
- Blood pressure (BP) ([1]; Mean of two monkeys, 90 min): 98 mmHg
- Blood pressure (BP) ([1]; Mean of two monkeys, 120 min): 94 mmHg
- Blood pressure (BP) ([1]; Mean of two monkeys, 180 min): 94 mmHg
- Blood pressure (BP) ([1]; Mean of two monkeys, 360 min): 99 mmHg
- Blood pressure (BP) [1, 2]: 114 mmHg
- Blood pressure (BP) ([1]; Monkey 1, 5 min): 112 mmHg
- Blood pressure (BP) ([1]; Monkey 1, 15 min): 105 mmHg
- Blood pressure (BP) ([1]; Monkey 1, 30 min): 113 mmHg
- Blood pressure (BP) ([1]; Monkey 1, 45 min): 95 mmHg
- Blood pressure (BP) ([1]; Monkey 1, 60 min): 102 mmHg
- Blood pressure (BP) ([1]; Monkey 1, 90 min): 90 mmHg
- Blood pressure (BP) ([1]; Monkey 1, 120 min): 84 mmHg
- Blood pressure (BP) ([1]; Monkey 1, 180 min): 84 mmHg
- Blood pressure (BP) ([1]; Monkey 1, 360 min): 94 mmHg
- Blood pressure (BP) ([1]; Monkey 1, time 0 min): 107 mmHg
- Blood pressure (BP) ([1]; Monkey 2, 5 min): 121 mmHg
- Blood pressure (BP) ([1]; Monkey 2, 15 min): 117 mmHg
- Blood pressure (BP) ([1]; Monkey 2, 30 min): 110 mmHg
- Blood pressure (BP) ([1]; Monkey 2, 45 min): 112 mmHg
- Blood pressure (BP) ([1]; Monkey 2, 60 min): 115 mmHg
- Blood pressure (BP) ([1]; Monkey 2, 90 min): 106 mmHg
- Blood pressure (BP) ([1]; Monkey 2, 120 min): 103 mmHg
- Blood pressure (BP) ([1]; Monkey 2, 180 min): 103 mmHg
- Blood pressure (BP) ([1]; Monkey 2, 360 min): 103 mmHg
- Blood pressure (BP) ([1]; Monkey 2, time 0 min): 120 mmHg
- Plasma Renin Activity (PRA) (plasma renin; Mean of two monkeys, 5 min): 9.7 ng/mL/h
- Plasma Renin Activity (PRA) (plasma renin; Mean of two monkeys, 15 min): 1.5 ng/mL/h
- Plasma Renin Activity (PRA) (plasma renin; Mean of two monkeys, 30 min): 0.4 ng/mL/h
- Plasma Renin Activity (PRA) (plasma renin; Mean of two monkeys, 45 min): 0.2 ng/mL/h
- Plasma Renin Activity (PRA) (plasma renin; Mean of two monkeys, 60 min): 0.2 ng/mL/h
- Plasma Renin Activity (PRA) (plasma renin; Mean of two monkeys, 90 min): 0.0 ng/mL/h
- Plasma Renin Activity (PRA) (plasma renin; Mean of two monkeys, 120 min): 0.3 ng/mL/h
- Plasma Renin Activity (PRA) (plasma renin; Mean of two monkeys, 180 min): 0.3 ng/mL/h
- Plasma Renin Activity (PRA) (plasma renin; Mean of two monkeys, 360 min): 0.2 ng/mL/h
- Plasma Renin Activity (PRA) (plasma renin; [2]): 23.9 ng/mL/h
- Plasma Renin Activity (PRA) (plasma renin; Monkey 1, 5 min): 5.8 ng/mL/h
- Plasma Renin Activity (PRA) (plasma renin; Monkey 1, 15 min): 0.1 ng/mL/h
- Plasma Renin Activity (PRA) (plasma renin; Monkey 1, 30 min): 0.4 ng/mL/h
- Plasma Renin Activity (PRA) (plasma renin; Monkey 1, 45 min): 0.0 ng/mL/h
- Plasma Renin Activity (PRA) (plasma renin; Monkey 1, 60 min): 0.0 ng/mL/h
- Plasma Renin Activity (PRA) (plasma renin; Monkey 1, 90 min): 0.0 ng/mL/h
- Plasma Renin Activity (PRA) (plasma renin; Monkey 1, 120 min): 0.2 ng/mL/h
- Plasma Renin Activity (PRA) (plasma renin; Monkey 1, 180 min): 0.2 ng/mL/h
- Plasma Renin Activity (PRA) (plasma renin; Monkey 1, 360 min): 0.0 ng/mL/h
- Plasma Renin Activity (PRA) (plasma renin; Monkey 1, time 0 min): 29.1 ng/mL/h
- Plasma Renin Activity (PRA) (plasma renin; Monkey 2, 5 min): 13.5 ng/mL/h
- Plasma Renin Activity (PRA) (plasma renin; Monkey 2, 15 min): 2.9 ng/mL/h
- Plasma Renin Activity (PRA) (plasma renin; Monkey 2, 30 min): 0.4 ng/mL/h
- Plasma Renin Activity (PRA) (plasma renin; Monkey 2, 45 min): 0.3 ng/mL/h
- Plasma Renin Activity (PRA) (plasma renin; Monkey 2, 60 min): 0.3 ng/mL/h
- Plasma Renin Activity (PRA) (plasma renin; Monkey 2, 90 min): 0.0 ng/mL/h
- Plasma Renin Activity (PRA) (plasma renin; Monkey 2, 120 min): 0.4 ng/mL/h
- Plasma Renin Activity (PRA) (plasma renin; Monkey 2, 180 min): 0.4 ng/mL/h
- Plasma Renin Activity (PRA) (plasma renin; Monkey 2, 360 min): 0.3 ng/mL/h
- Plasma Renin Activity (PRA) (plasma renin; Monkey 2, time 0 min): 18.7 ng/mL/h
